ChEMBL document CHEMBL1667775, “Design, synthesis and biological evaluation of new thalidomide analogues as TNF-α and IL-6 production inhibitors” (Bioorg Med Chem Lett, 2011)
Active and inactive are the calls of the source. No cut-off for these calls is given here.

Tests used:
PBMC [1] = experiment: Cytotoxicity against human PBMC at 1 to 100 uM after 48 hrs by propidium iodure labeling; format: cell-based
PBMC [2] = experiment: Cytotoxicity against human PBMC at 1 to 100 uM after 48 hrs by flow cytometry; format: cell-based
PBMC [3] = experiment: Antiinflammatory activity in human PBMC assessed as inhibition of LPS-induced TNFalpha production at 1 to 100 uM after 48 hrs by ELISA; format: functional, cell-based
PBMC [4] = experiment: Antiinflammatory activity in human PBMC assessed as inhibition of LPS-induced IL-6 production at 1 to 100 uM after 48 hrs by ELISA; format: functional, cell-based
PBMC [5] = experiment: Antiinflammatory activity in human PBMC assessed as inhibition of LPS-induced TNFalpha production at 100 uM after 48 hrs by ELISA; format: functional, cell-based
PBMC [6] = experiment: Antiinflammatory activity in human PBMC assessed as inhibition of LPS-induced IL-6 production at 100 uM after 48 hrs by ELISA; format: functional, cell-based
PBMC [7] = experiment: Antiinflammatory activity in human PBMC assessed as inhibition of LPS-induced TNFalpha production at 1 to 10 uM after 48 hrs by ELISA; format: functional, cell-based
PBMC [8] = experiment: Antiinflammatory activity in human PBMC assessed as inhibition of LPS-induced IL-6 production at 1 to 10 uM after 48 hrs by ELISA; format: functional, cell-based
PBMC [9] = experiment: Antiinflammatory activity in human PBMC assessed as inhibition of LPS-induced TNFalpha production after 48 hrs by ELISA; format: functional, cell-based

Question: What does the source list for `O=C(Nc1cccc(S(=O)(=O)N2CCOCC2)c1)c1cc2cccnc2[nH]1`?
Answer: Activity (PBMC [1]): Non-toxic; Activity (PBMC [2]): Non-toxic; Activity (PBMC [3]): inactive; Activity (PBMC [4]): inactive

Question: What does the source list for `O=C(Nc1cccc(S(=O)(=O)N2CCN(c3ccccc3)CC2)c1)c1cc2cccnc2[nH]1`?
Answer: Activity (PBMC [1]): Non-toxic; Activity (PBMC [2]): Non-toxic; Activity (PBMC [3]): inactive; Activity (PBMC [4]): inactive

Question: How did the Activity (PBMC [1]) turn out when `O=C1C2Cc3ccccc3N2C(=O)N1S(=O)(=O)c1ccc2ccccc2c1` (centres undefined) was run?
Answer: Non-toxic

Question: And the Activity (PBMC [2])?
Answer: Non-toxic

Question: What does the source list for `Cc1ccc(S(=O)(=O)N2C(=O)c3cc4ccccc4n3C2=O)cc1`?
Answer: Activity (PBMC [1]): Non-toxic; Activity (PBMC [2]): Non-toxic

Question: `CCOC(=O)c1ccc(S(=O)(=O)CN2C(=O)C3Cc4ccccc4CN3S2(=O)=O)cc1` (centres undefined) was tested. Which Activity (PBMC [1]) did it give?
Answer: Non-toxic

Question: And the Activity (PBMC [2])?
Answer: Non-toxic

Question: And the Activity (PBMC [5])?
Answer: Active

Question: And the Activity (PBMC [6])?
Answer: Active

Question: What about the Activity (PBMC [7]) of the same compound?
Answer: inactive

Question: What about the Activity (PBMC [8]) of the same compound?
Answer: inactive

Question: How did the Activity (PBMC [1]) turn out when `O=C(Nc1ccccc1)c1cc2cccnc2[nH]1` was run?
Answer: Non-toxic

Question: And the Activity (PBMC [2])?
Answer: Non-toxic

Question: What about the Activity (PBMC [3]) of the same compound?
Answer: inactive

Question: What about the Activity (PBMC [4]) of the same compound?
Answer: inactive

Question: For `O=C(Nc1cccc(S(=O)(=O)N2CCSCC2)c1)c1cc2cccnc2[nH]1`, which Activity (PBMC [1]) is on record?
Answer: Non-toxic

Question: And the Activity (PBMC [2])?
Answer: Non-toxic

Question: What about the Activity (PBMC [3]) of the same compound?
Answer: inactive

Question: And the Activity (PBMC [4])?
Answer: inactive

Question: How did the Activity (PBMC [1]) turn out when `O=C1c2cc3cccnc3n2C(=O)N1S(=O)(=O)c1ccccc1` was run?
Answer: Non-toxic

Question: And the Activity (PBMC [2])?
Answer: Non-toxic

Question: And the Activity (PBMC [3])?
Answer: Active

Question: And the Activity (PBMC [4])?
Answer: inactive

Question: What does the source list for `O=C(Nc1ccccc1)c1cc2cccnc2n1S(=O)(=O)c1ccccc1`?
Answer: Activity (PBMC [1]): Non-toxic; Activity (PBMC [2]): Non-toxic; Activity (PBMC [4]): Active; Activity (PBMC [9]): Dose-dependent effect
